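Cells were grown in 96-well plates and exposed to each compound for 48 hours at five concentrations; endpoints were interpolated linearly between bracketing concentrations, or set to the highest concentration if not reached. GI50: concentration for 50% inhibition of growth.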 Active and inactive are the calls of the source. Cut-off read from the data, not from the text of the source: active = GI50 up to about 1.1 µM and inactive = higher.
Legend:
Experiment in all cases: DTP human tumour cell line panel, 48 h
HT-29 = system: HT-29
SW-620 = system: SW-620
U-251 = system: U-251
LXFL 529 = system: LXFL 529
OVCAR-4 = system: OVCAR-4
TK-10 = system: TK-10
SN12C = system: SN12C
HCT-15 = system: HCT-15
SF-268 = system: SF-268
KM-20L2 = system: KM-20L2
RPMI-8226 = system: RPMI-8226
UO-31 = system: UO-31
KM12 = system: KM12
SF-295 = system: SF-295
OVCAR-3 = system: OVCAR-3
DMS-114 = system: DMS-114
SNB-19 = system: SNB-19
HCT-116 = system: HCT-116
NCI-H460 = system: NCI-H460
OVCAR-5 = system: OVCAR-5
A549 = system: A549
A498 = system: A498
SK-OV-3 = system: SK-OV-3
SNB-78 = system: SNB-78
IGROV-1 = system: IGROV-1
ACHN = system: ACHN
COLO 205 = system: COLO 205
786-0 = system: 786-0
NCI-H522 = system: NCI-H522
DLD-1 = system: DLD-1
UACC-257 = system: UACC-257
LOX IMVI = system: LOX IMVI
OVCAR-8 = system: OVCAR-8
Malme-3M = system: Malme-3M
UACC-62 = system: UACC-62
M19-MEL = system: M19-MEL
HOP-62 = system: HOP-62
NCI-H23 = system: NCI-H23
SF-539 = system: SF-539
RXF 631 = system: RXF 631
EKVX = system: EKVX
CAKI-1 = system: CAKI-1
SK-MEL-5 = system: SK-MEL-5
HL-60 = system: HL-60
SK-MEL-2 = system: SK-MEL-2
M14 = system: M14
SR = system: SR
NCI-H226 = system: NCI-H226
CCRF-CEM = system: CCRF-CEM
RXF 393 = system: RXF 393
SNB-75 = system: SNB-75
BT-549 = system: BT-549
HOP-92 = system: HOP-92
HCC 2998 = system: HCC 2998
Hs-578T = system: Hs-578T
PC-3 = system: PC-3
MDA-MB-435 = system: MDA-MB-435
HOP-18 = system: HOP-18
SK-MEL-28 = system: SK-MEL-28
MDA-N = system: MDA-N
MCF7 = system: MCF7
NCI/ADR-RES = system: NCI/ADR-RES
DMS-273 = system: DMS-273
K562 = system: K562
MOLT-4 = system: MOLT-4
T47D = system: T47D
XF498 = system: XF498
DU-145 = system: DU-145
MDA-MB-231 = system: MDA-MB-231

O=C1/C=C(/c2ccc(O)cc2)[C@@H](OC2OC(CO)C(O)C(O)C2O)Cc2ccc(O)cc2O1.O=C1/C=C(/c2ccc(O)cc2)[C@H](O)Cc2ccc(O[C@@H]3OC(CO)C(O)C(O)C3O)cc2O1 (some centres not stated)
GI50 (HT-29): > 100 µM (inactive)
GI50 (SW-620): > 100 µM (inactive)
GI50 (U-251): > 100 µM (inactive)
GI50 (LXFL 529): > 100 µM (inactive)
GI50 (OVCAR-4): > 100 µM (inactive)
GI50 (TK-10): > 100 µM (inactive)
GI50 (SN12C): > 100 µM (inactive)
GI50 (HCT-15): > 100 µM
GI50 (SF-268): > 100 µM (inactive)
GI50 (KM-20L2): > 100 µM (inactive)
GI50 (RPMI-8226): 25.2 µM (inactive)
GI50 (UO-31): > 100 µM (inactive)
GI50 (KM12): > 100 µM (inactive)
GI50 (SF-295): > 100 µM (inactive)
GI50 (OVCAR-3): > 100 µM (inactive)
GI50 (DMS-114): > 100 µM (inactive)
GI50 (SNB-19): > 100 µM (inactive)
GI50 (HCT-116): > 100 µM (inactive)
GI50 (NCI-H460): > 100 µM (inactive)
GI50 (OVCAR-5): > 100 µM (inactive)
GI50 (A549): > 100 µM (inactive)
GI50 (A498): > 100 µM (inactive)
GI50 (SK-OV-3): > 100 µM (inactive)
GI50 (SNB-78): > 100 µM (inactive)
GI50 (IGROV-1): > 100 µM (inactive)
GI50 (ACHN): > 100 µM (inactive)
GI50 (COLO 205): > 100 µM (inactive)
GI50 (786-0): > 100 µM (inactive)
GI50 (NCI-H522): > 100 µM (inactive)
GI50 (DLD-1): > 100 µM (inactive)
GI50 (UACC-257): > 100 µM (inactive)
GI50 (LOX IMVI): > 100 µM (inactive)
GI50 (OVCAR-8): > 100 µM (inactive)
GI50 (Malme-3M): > 100 µM (inactive)
GI50 (UACC-62): > 100 µM (inactive)
GI50 (M19-MEL): > 100 µM (inactive)
GI50 (HOP-62): > 100 µM (inactive)
GI50 (NCI-H23): > 100 µM (inactive)
GI50 (SF-539): > 100 µM (inactive)
GI50 (RXF 631): > 100 µM (inactive)
GI50 (EKVX): > 100 µM (inactive)
GI50 (CAKI-1): > 100 µM (inactive)
GI50 (SK-MEL-5): > 100 µM (inactive)
GI50 (HL-60): 4.91 µM (inactive)
GI50 (SK-MEL-2): > 100 µM (inactive)
GI50 (M14): > 100 µM (inactive)
GI50 (SR): 1 µM (active)
GI50 (NCI-H226): > 100 µM (inactive)

COC1/C=C\C=C(/C)C(=O)NC2=CC(=O)C(NCCCl)=C(CC(C)CC(OC)C(O)C(C)/C=C(/C)C1OC(N)=O)C2=O (configuration not stated)
GI50 (HT-29): 0.0158 µM (active)
GI50 (SW-620): 0.0161 µM (active)
GI50 (U-251): 0.11 µM (active)
GI50 (LXFL 529): 0.0298 µM (active)
GI50 (CCRF-CEM): 0.0993 µM (active)
GI50 (RXF 393): 0.0174 µM (active)
GI50 (OVCAR-4): 2.54 µM (inactive)
GI50 (SNB-75): 0.413 µM (active)
GI50 (BT-549): 1.25 µM (inactive)
GI50 (TK-10): 1.77 µM (inactive)
GI50 (SN12C): 0.069 µM (active)
GI50 (HCT-15): 0.301 µM
GI50 (SF-268): 0.351 µM (active)
GI50 (KM-20L2): 0.0134 µM (active)
GI50 (HOP-92): 0.384 µM (active)
GI50 (RPMI-8226): 0.0977 µM (active)
GI50 (UO-31): 0.728 µM (active)
GI50 (KM12): 0.125 µM (active)
GI50 (HCC 2998): 0.101 µM (active)
GI50 (SF-295): 0.743 µM (active)
GI50 (OVCAR-3): 0.0853 µM (active)
GI50 (DMS-114): 0.0296 µM (active)
GI50 (SNB-19): 0.927 µM (active)
GI50 (HCT-116): 0.0489 µM (active)
GI50 (NCI-H460): 0.0991 µM (active)
GI50 (Hs-578T): 4.89 µM (inactive)
GI50 (OVCAR-5): 0.594 µM (active)
GI50 (PC-3): 0.656 µM (active)
GI50 (MDA-MB-435): 0.0526 µM (active)
GI50 (A549): 0.53 µM (active)
GI50 (A498): 0.873 µM (active)
GI50 (SK-OV-3): 0.117 µM (active)
GI50 (SNB-78): 0.655 µM (active)
GI50 (HOP-18): 0.0308 µM (active)
GI50 (SK-MEL-28): 0.0373 µM (active)
GI50 (MDA-N): 0.332 µM (active)
GI50 (IGROV-1): 0.499 µM (active)
GI50 (ACHN): 0.281 µM (active)
GI50 (MCF7): 0.0333 µM (active)
GI50 (COLO 205): < 0.0126 µM (active)
GI50 (786-0): 0.323 µM (active)
GI50 (NCI-H522): 0.0219 µM (active)
GI50 (NCI/ADR-RES): 10.6 µM (inactive)
GI50 (DLD-1): 0.0266 µM (active)
GI50 (UACC-257): 0.0363 µM (active)
GI50 (LOX IMVI): 0.0857 µM (active)
GI50 (DMS-273): 0.053 µM (active)
GI50 (OVCAR-8): 0.115 µM (active)
GI50 (Malme-3M): 0.0345 µM (active)
GI50 (UACC-62): 0.0405 µM (active)
GI50 (K562): 0.0236 µM (active)
GI50 (MOLT-4): 0.052 µM (active)
GI50 (M19-MEL): 0.0366 µM (active)
GI50 (HOP-62): 0.339 µM (active)
GI50 (NCI-H23): 0.0715 µM (active)
GI50 (SF-539): 0.127 µM (active)
GI50 (T47D): 2.36 µM (inactive)
GI50 (EKVX): 0.592 µM (active)
GI50 (CAKI-1): 0.33 µM (active)
GI50 (SK-MEL-5): 0.34 µM (active)
GI50 (HL-60): 0.0281 µM (active)
GI50 (XF498): 0.659 µM (active)
GI50 (SK-MEL-2): 0.147 µM (active)
GI50 (M14): 0.0724 µM (active)
GI50 (DU-145): 0.569 µM (active)
GI50 (MDA-MB-231): 2 µM (inactive)
GI50 (SR): 0.0341 µM (active)
GI50 (NCI-H226): 0.729 µM (active)

COc1ccccc1-c1csc(CCC(N)C(=O)O)n1 (configuration not stated)
GI50 (HT-29): > 100 µM (inactive)
GI50 (U-251): > 100 µM (inactive)
GI50 (CCRF-CEM): > 100 µM (inactive)
GI50 (RXF 393): > 100 µM (inactive)
GI50 (TK-10): 26.3 µM (inactive)
GI50 (KM-20L2): > 100 µM (inactive)
GI50 (HOP-92): > 100 µM (inactive)
GI50 (UO-31): > 100 µM (inactive)
GI50 (KM12): > 100 µM (inactive)
GI50 (SF-295): > 100 µM (inactive)
GI50 (DMS-114): > 100 µM (inactive)
GI50 (SNB-19): > 100 µM (inactive)
GI50 (HCT-116): > 100 µM (inactive)
GI50 (NCI-H460): > 100 µM (inactive)
GI50 (OVCAR-5): > 100 µM (inactive)
GI50 (A549): > 100 µM (inactive)
GI50 (A498): > 100 µM (inactive)
GI50 (SK-OV-3): > 100 µM (inactive)
GI50 (SNB-78): > 100 µM (inactive)
GI50 (SK-MEL-28): > 100 µM (inactive)
GI50 (IGROV-1): > 100 µM (inactive)
GI50 (ACHN): > 100 µM (inactive)
GI50 (NCI-H522): > 100 µM (inactive)
GI50 (UACC-257): > 100 µM (inactive)
GI50 (DMS-273): > 100 µM (inactive)
GI50 (OVCAR-8): > 100 µM (inactive)
GI50 (UACC-62): > 100 µM (inactive)
GI50 (MOLT-4): > 100 µM (inactive)
GI50 (M19-MEL): > 100 µM (inactive)
GI50 (HOP-62): > 100 µM (inactive)
GI50 (NCI-H23): > 100 µM (inactive)
GI50 (RXF 631): > 100 µM (inactive)
GI50 (EKVX): > 100 µM (inactive)
GI50 (HL-60): > 100 µM (inactive)
GI50 (M14): > 100 µM (inactive)
GI50 (SR): > 100 µM (inactive)

Source: ChEMBL document CHEMBL1201862, “PubChem BioAssay data set” (2004)
